Test results: BindingDB's records for doi:10.1016/j.ejmech.2010.02.027 (University of Florida, 2010)
pKi: −log10 of the molar value.

Target: Neuronal acetylcholine receptor subunit alpha-4/beta-2 (Rattus norvegicus, UniProt P09483+P12390)
Experiment: Displacement of [3H]cytisine from alpha4beta2 nAChR in rat brain membrane after 3 hrs

Sequence of Neuronal acetylcholine receptor subunit alpha-4/beta-2 (P09483 whole entry): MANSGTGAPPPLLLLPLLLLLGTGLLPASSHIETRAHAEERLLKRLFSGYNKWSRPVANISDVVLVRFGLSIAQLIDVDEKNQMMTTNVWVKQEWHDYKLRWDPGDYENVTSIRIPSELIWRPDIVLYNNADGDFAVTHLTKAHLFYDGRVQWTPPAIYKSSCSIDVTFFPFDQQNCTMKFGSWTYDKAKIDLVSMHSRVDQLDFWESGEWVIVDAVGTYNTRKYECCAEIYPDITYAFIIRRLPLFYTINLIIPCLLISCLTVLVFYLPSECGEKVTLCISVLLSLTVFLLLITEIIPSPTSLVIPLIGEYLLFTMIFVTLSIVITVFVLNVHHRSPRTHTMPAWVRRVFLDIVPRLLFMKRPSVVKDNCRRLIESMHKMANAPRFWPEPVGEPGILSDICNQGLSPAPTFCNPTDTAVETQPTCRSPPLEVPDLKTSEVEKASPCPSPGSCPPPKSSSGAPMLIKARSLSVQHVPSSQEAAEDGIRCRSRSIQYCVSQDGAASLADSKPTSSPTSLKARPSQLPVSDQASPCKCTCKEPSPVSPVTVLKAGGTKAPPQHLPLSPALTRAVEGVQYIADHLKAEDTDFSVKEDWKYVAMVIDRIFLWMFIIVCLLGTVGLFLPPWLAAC
Sequence of Neuronal acetylcholine receptor subunit alpha-4/beta-2 (P12390 whole entry): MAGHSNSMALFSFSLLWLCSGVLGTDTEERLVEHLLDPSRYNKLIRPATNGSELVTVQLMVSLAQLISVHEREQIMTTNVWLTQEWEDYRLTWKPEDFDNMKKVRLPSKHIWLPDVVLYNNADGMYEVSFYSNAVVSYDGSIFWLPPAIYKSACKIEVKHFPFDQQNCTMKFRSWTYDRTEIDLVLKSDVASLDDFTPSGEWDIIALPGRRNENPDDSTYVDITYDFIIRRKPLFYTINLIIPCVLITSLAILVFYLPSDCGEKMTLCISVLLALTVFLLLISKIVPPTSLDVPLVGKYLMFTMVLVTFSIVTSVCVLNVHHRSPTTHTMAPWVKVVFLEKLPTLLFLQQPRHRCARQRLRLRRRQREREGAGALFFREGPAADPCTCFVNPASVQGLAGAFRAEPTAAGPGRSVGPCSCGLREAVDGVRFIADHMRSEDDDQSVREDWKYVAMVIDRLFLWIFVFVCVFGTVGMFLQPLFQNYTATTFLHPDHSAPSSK

| SMILES | pKi |
| --- | --- |
| CN(C)c1ccc(/C=C2\CCCN=C2c2cccnc2)cc1 [3-(4-Dimethylaminobenzylidene)anabaseine] | 6.11 |
| CCCc1ccc(/C=C2\CCCN=C2c2cccnc2)cc1 [3-(4-n-Propylbenzylidene)anabaseine] | 7.29 |
| Nc1ccc(/C=C2\CCCN=C2c2cccnc2)cc1 [3-(4-Aminobenzylidene)anabaseine] | 6.04 |
| CCC(CC)Oc1cc(OC)ccc1/C=C1\CCCN=C1c1cccnc1 [3-[2-(Pentan-3-yloxy)-4-methoxybenzylidene]anabaseine] | 6.44 |
| CC(=O)Nc1ccc(/C=C2\CCCN=C2c2cccnc2)cc1 [N-(4-((2-(pyridin-3-yl)-5,6-dihydropyridin-3(4H)-ylidene)methyl)phenyl)acetamide] | 6.38 |
| COc1cc(/C=C2\CCCN=C2c2cccnc2)cc(OC)c1OC [3-(3,4,5-Trimethoxybenzylidene)anabaseine] | 6.17 |
| C(=C1/CCCN=C1c1cccnc1)/c1cc2ccccc2o1 [3-(Benzofuran-2-ylmethylene)anabaseine] | 6.11 |
| COc1ccc(/C=C2\CCCN=C2c2cccnc2)c(OC(C)C)c1 [3-(2-i-Propoxy-4-methoxybenzylidene)anabaseine] | 6.11 |
| CC(=O)Oc1ccc(/C=C2\CCCN=C2c2cccnc2)cc1 [3-(4-Acetoxybenzylidene)anabaseine] | 6.22 |
